# Patent US11912701B2, “Protein kinase inhibitors for promoting liver regeneration or reducing or preventing hepatocyte death” (HEPAREGENIX GMBH, priority 2018, dated 2024)
# Assays:
# Assay type in all cases: biochemical
# [1] = target: T1, MKK7 (Homo sapiens, UniProt O14733); assay: 33PanQinase enzyme assay, MKK7; design: purchased ProQinase GmbH, Freiburg, Germany (33PanQinase Assay Service); details: ratio IC50(MKK7)/IC50(MKK4)
# T1 sequence (O14733 1-419): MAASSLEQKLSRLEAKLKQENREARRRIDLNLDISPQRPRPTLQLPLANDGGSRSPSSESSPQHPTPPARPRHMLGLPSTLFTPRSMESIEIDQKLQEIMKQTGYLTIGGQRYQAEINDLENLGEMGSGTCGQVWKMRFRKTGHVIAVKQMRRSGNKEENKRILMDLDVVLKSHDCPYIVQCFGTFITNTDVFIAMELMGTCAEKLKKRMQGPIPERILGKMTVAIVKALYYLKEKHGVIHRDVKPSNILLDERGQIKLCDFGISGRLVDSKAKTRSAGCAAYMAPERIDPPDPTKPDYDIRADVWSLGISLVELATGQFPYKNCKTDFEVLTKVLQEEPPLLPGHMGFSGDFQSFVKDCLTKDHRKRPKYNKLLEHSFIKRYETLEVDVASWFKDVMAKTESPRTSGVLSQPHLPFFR
# Method: (§1) The kinase activities of the compounds of the invention were measured using the 33PanQinase® Assay Service provided by ProQinase GmbH, Freiburg, Germany. Details of the assay conditions are disclosed on the website of ProQinase (https://www.proginase.com/products-services-biochemical-assay-services/kinase-assays). In brief, all kinase assays were performed in 96-well FlashPlates™ from PerkinElmer (Boston, MA, USA) in a 50 μl reaction volume. The reaction cocktail was pipetted in four steps in the following order: • 20 μl of assay buffer (standard buffer) • 5 μl of ATP solution (in H2O) • 5 μl of test compound (in 10% DMSO) • 20 μl enzyme/subtrate mix
# (§2) The reaction cocktails were incubated at 30° C. for 60 minutes. The reaction is stopped with 50 μl of 2% (v/v) H3PO4, plates were aspirated and washed two times with 200 μl 0.9% (w/v) NaCl. Incorporation of ^33Pi was determined with a microplate scintillation counter (Microbeta, Wallac).
# (§3) All assays were performed with a BeckmanCoulter/SAGIAN™ Core System.
# (§4) In case of single concentration assays, the potency of the test compound is expressed as % residual activity. […] The fitting method used was a least-squares fit.
# (§5) Selectivity of test compounds against BRaf, JNK1 and MKK7, altogether denominated as off-targets was calculated by the ratio of IC50 (off-target)/IC50 (MKK4) and categorized as follows: […]
# [2] = target: JNK1 (Homo sapiens, UniProt P45983); assay: 33PanQinase enzyme assay, JNK1; design: purchased ProQinase GmbH, Freiburg, Germany (33PanQinase Assay Service); details: ratio IC50(JNK1)/IC50(MKK4)
# Sequence of JNK1 (P45983 whole entry): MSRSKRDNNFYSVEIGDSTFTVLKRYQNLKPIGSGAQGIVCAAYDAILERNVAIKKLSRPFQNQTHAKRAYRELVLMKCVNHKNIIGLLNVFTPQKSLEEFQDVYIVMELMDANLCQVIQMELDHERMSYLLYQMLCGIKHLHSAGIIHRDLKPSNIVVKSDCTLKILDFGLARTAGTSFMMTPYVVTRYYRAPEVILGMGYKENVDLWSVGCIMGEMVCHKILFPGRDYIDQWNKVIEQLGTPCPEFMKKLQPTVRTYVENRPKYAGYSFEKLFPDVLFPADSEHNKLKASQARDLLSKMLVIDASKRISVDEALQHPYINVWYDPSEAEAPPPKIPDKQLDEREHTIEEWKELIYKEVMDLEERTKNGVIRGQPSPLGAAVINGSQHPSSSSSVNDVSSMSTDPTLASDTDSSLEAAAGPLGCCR
# Method: as §1, §2, §3, §4, §5
# [3] = target: T2, BRaf (Homo sapiens, UniProt P15056); assay: 33PanQinase enzyme assay, BRaf; details: ratio IC50(BRaf)/IC50(MKK4)
# T2 construct: purchased ProQinase GmbH, Freiburg, Germany (33PanQinase Assay Service)
# T2 sequence (P15056 whole entry, species assumed): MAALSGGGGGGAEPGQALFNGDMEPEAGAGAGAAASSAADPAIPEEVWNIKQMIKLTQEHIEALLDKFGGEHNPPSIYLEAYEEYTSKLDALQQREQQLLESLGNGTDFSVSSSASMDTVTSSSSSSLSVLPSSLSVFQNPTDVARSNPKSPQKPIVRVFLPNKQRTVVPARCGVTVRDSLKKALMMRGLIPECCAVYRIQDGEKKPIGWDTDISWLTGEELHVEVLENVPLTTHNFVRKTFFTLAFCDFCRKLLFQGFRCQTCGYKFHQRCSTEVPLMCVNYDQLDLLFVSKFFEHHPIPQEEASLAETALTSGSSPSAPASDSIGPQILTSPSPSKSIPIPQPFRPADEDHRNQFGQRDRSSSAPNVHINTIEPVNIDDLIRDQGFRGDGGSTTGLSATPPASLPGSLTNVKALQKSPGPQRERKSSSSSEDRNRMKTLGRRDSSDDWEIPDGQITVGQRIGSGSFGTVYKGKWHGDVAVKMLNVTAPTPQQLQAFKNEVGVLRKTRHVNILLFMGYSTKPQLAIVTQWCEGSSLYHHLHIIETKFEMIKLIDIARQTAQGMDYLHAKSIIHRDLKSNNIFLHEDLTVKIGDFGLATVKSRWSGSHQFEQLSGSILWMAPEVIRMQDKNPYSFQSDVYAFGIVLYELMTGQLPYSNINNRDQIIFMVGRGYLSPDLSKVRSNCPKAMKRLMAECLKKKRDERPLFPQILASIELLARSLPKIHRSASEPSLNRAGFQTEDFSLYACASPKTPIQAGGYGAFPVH
# Method: as §1, §2, §3, §4, §5
# [4] = target: T3, MKK4 (Homo sapiens, UniProt P45985); assay: 33PanQinase enzyme assay, MKK4; details: assay 'IC50'; read-out: Potency MKK4 (IC50)
# T3 construct: purchased ProQinase GmbH, Freiburg, Germany (33PanQinase Assay Service)
# T3 sequence (P45985 1-399): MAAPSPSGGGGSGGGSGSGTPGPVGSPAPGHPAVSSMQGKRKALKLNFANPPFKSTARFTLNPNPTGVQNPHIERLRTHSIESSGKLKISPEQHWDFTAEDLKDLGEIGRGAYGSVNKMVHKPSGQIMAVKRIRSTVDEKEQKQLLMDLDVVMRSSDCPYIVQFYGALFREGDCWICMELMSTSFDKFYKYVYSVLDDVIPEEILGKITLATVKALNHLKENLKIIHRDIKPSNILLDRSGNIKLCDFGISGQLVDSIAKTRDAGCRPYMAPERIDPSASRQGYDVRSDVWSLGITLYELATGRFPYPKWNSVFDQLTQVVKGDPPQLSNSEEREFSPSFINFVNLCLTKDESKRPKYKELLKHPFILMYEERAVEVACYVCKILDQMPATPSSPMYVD
# Method: as §1, §2, §3, §4
# Inhibition potency against MKK4 is categorized as follows:
# Assay at single concentration (100 nM):
SMILES,"Selectivity IVIKK7, IC50(off-target)/IC50(MKK4) [1]","Selectivity JNK1, IC50(off-target)/IC50(MKK4) [2]","Selectivity Braf, IC50(off-target)/IC50(MKK4) [3]",IC50 [4] [µM]
"CCCS(=O)(=O)Nc1ccc(F)c(C(=O)c2c[nH]c3ncc(-c4cncnc4)cc23)c1F [Example 91, N-(2,4-difluoro-3-(5-(pyrimidin-5-yl)-1H-pyrrolo[2,3-b]pyridine-3-carbonyl)phenyl)propane-1-sulfonamide]",++ (100 ≥ IC50(off-target)/IC50(MKK4) > 10),◯ (3 ≥ IC50(off-target)/IC50(MKK4)),◯ (3 ≥ IC50(off-target)/IC50(MKK4)),1 to 10
"CCCS(=O)(=O)Nc1ccc(F)c(C(=O)c2c[nH]c3ncc(-c4ccc(P(C)(C)=O)cc4)cc23)c1F [Example 93, N-(3-(5-(4-(dimethylphosphoryl)phenyl)-1H-pyrrolo[2,3-b]pyridine-3-carbonyl)-2,4-difluorophenyl)propane-1-sulfonamide]",+++ (IC50(off-target)/IC50(MKK4) > 100),++ (100 ≥ IC50(off-target)/IC50(MKK4) > 10),◯ (3 ≥ IC50(off-target)/IC50(MKK4)),0.1 to 1
"CCCS(=O)(=O)Nc1ccc(F)c(C(=O)c2c[nH]c3ncc(C(=O)NOCCO)cc23)c1F [Example 94, 3-(2,6-difluoro-3-(propylsulfonamido)benzoyl)-N-(2-hydroxyethoxy)-1H-pyrrolo[2,3-b]pyridine-5-carboxamide]",+++ (IC50(off-target)/IC50(MKK4) > 100),+ (10 ≥ IC50(off-target)/IC50(MKK4) > 3),◯ (3 ≥ IC50(off-target)/IC50(MKK4)),< 0.1
"CCCS(=O)(=O)Nc1ccc(F)c(C(=O)c2c[nH]c3ncc(-c4ccc5c(c4)C=C(C)N=S5(C)=O)cc23)c1F (stereo not shown) [Example 95, N-(3-(5-(1,3-dimethyl-1-oxido-1l4-benzo[e][1,2]thiazin-6-yl)-1H-pyrrolo[2,3-b]pyridine-3-carbonyl)-2,4-difluorophenyl)propane-1-sulfonamide]",+++ (IC50(off-target)/IC50(MKK4) > 100),◯ (3 ≥ IC50(off-target)/IC50(MKK4)),◯ (3 ≥ IC50(off-target)/IC50(MKK4)),0.1 to 1
"CCCS(=O)(=O)Nc1ccc(F)c(C(=O)c2c[nH]c3ncc(-c4ccccc4C(F)(F)F)cc23)c1F [Example 97, N-(2,4-difluoro-3-(5-(2-(trifluoromethyl)phenyl)-1H-pyrrolo[2,3-b]pyridine-3-carbonyl)phenyl)propane-1-sulfonamide]",+++ (IC50(off-target)/IC50(MKK4) > 100),+ (10 ≥ IC50(off-target)/IC50(MKK4) > 3),◯ (3 ≥ IC50(off-target)/IC50(MKK4)),0.1 to 1
"CCCS(=O)(=O)Nc1ccc(F)c(C(=O)c2c[nH]c3ncc(-c4ccc(N(C)C)cc4)cc23)c1F [Example 98, N-(3-(5-(4-(dimethylamino)phenyl)-1H-pyrrolo[2,3-b]pyridine-3-carbonyl)-2,4-difluorophenyl)propane-1-sulfonamide]",++ (100 ≥ IC50(off-target)/IC50(MKK4) > 10),+ (10 ≥ IC50(off-target)/IC50(MKK4) > 3),◯ (3 ≥ IC50(off-target)/IC50(MKK4)),1 to 10
"CCCS(=O)(=O)Nc1ccc(F)c(C(=O)c2c[nH]c3ncc(-c4ccc5ccccc5c4)cc23)c1F [Example 99, N-(2,4-difluoro-3-(5-(naphthalen-2-yl)-1H-pyrrolo[2,3-b]pyridine-3-carbonyl)phenyl)propane-1-sulfonamide]",+++ (IC50(off-target)/IC50(MKK4) > 100),◯ (3 ≥ IC50(off-target)/IC50(MKK4)),◯ (3 ≥ IC50(off-target)/IC50(MKK4)),0.1 to 1
"CCCS(=O)(=O)Nc1ccc(F)c(C(=O)c2c[nH]c3ncc(-c4ccc(C(C)(C)C)cc4)cc23)c1F [Example 113, N-(3-(5-(4-(tert-butyl)phenyl)-1H-pyrrolo[2,3-b]pyridine-3-carbonyl)-2,4-difluorophenyl)propane-1-sulfonamide]",+++ (IC50(off-target)/IC50(MKK4) > 100),+ (10 ≥ IC50(off-target)/IC50(MKK4) > 3),◯ (3 ≥ IC50(off-target)/IC50(MKK4)),0.1 to 1
"CCCS(=O)(=O)Nc1ccc(F)c(C(=O)c2c[nH]c3ncc(-c4cccc(C)c4)cc23)c1F [Example 114, N-(2,4-difluoro-3-(5-(m-tolyl)-1H-pyrrolo[2,3-b]pyridine-3-carbonyl)phenyl)propane-1-sulfonamide]",+++ (IC50(off-target)/IC50(MKK4) > 100),+ (10 ≥ IC50(off-target)/IC50(MKK4) > 3),◯ (3 ≥ IC50(off-target)/IC50(MKK4)),0.1 to 1
"CCCS(=O)(=O)Nc1ccc(F)c(C(=O)c2c[nH]c3ncc(-c4cccc(F)c4)cc23)c1F [Example 115, N-(2,4-difluoro-3-(5-(3-fluorophenyl)-1H-pyrrolo[2,3-b]pyridine-3-carbonyl)phenyl)propane-1-sulfonamide]",+++ (IC50(off-target)/IC50(MKK4) > 100),+ (10 ≥ IC50(off-target)/IC50(MKK4) > 3),◯ (3 ≥ IC50(off-target)/IC50(MKK4)),0.1 to 1
"CCCS(=O)(=O)Nc1ccc(F)c(C(=O)c2c[nH]c3ncc(-c4ccc(NC(C)=O)cc4)cc23)c1F [Example 116, N-(4-(3-(2,6-difluoro-3-(propylsulfonamido)benzoyl)-1H-pyrrolo[2,3-b]pyridin-5-yl)phenyl)acetamide]",+++ (IC50(off-target)/IC50(MKK4) > 100),◯ (3 ≥ IC50(off-target)/IC50(MKK4)),◯ (3 ≥ IC50(off-target)/IC50(MKK4)),0.1 to 1
"CCCS(=O)(=O)Nc1ccc(F)c(C(=O)c2c[nH]c3ncc(-c4cccc(C(F)(F)F)c4)cc23)c1F [Example 117, N-(2,4-difluoro-3-(5-(3-(trifluoromethyl)phenyl)-1H-pyrrolo[2,3-b]pyridine-3-carbonyl)phenyl)propane-1-sulfonamide]",+++ (IC50(off-target)/IC50(MKK4) > 100),◯ (3 ≥ IC50(off-target)/IC50(MKK4)),◯ (3 ≥ IC50(off-target)/IC50(MKK4)),1 to 10
"CCCS(=O)(=O)Nc1ccc(F)c(C(=O)c2c[nH]c3ncc(-c4ccccc4C#N)cc23)c1F [Example 118, N-(3-(5-(2-cyanophenyl)-1H-pyrrolo[2,3-b]pyridine-3-carbonyl)-2,4-difluorophenyl)propane-1-sulfonamide]",+++ (IC50(off-target)/IC50(MKK4) > 100),+ (10 ≥ IC50(off-target)/IC50(MKK4) > 3),◯ (3 ≥ IC50(off-target)/IC50(MKK4)),0.1 to 1
